Reference: patent publication US5547972A, “Therapeutic agents useful for treating inflammatory diseases” (The Boots Company PLC, priority 1991, dated 1996)
Where a name gives a salt, the structure may show the parent alone. Read-outs that look alike come from different tables or passages of the source.

Experiments:
[1] = test system: Carrageenan-induced rat paw oedema; experiment: Test B: Carrageenan-induced rat paw oedema test; assay type: in vivo, rat (female); conditions: inhibition of paw oedema, 1 h before carrageenan, 3 h after injection; for inhibition in vivo at 100 mg/kg: Rattus norvegicus, po, 3 h; for Test B % inhibition at 100 mg/kg: oral
Procedure: Carrageenan-induced rat paw oedema test
Female rats, weight range 125-150 g were fasted overnight. One of the hind legs of each animal was marked with a line at the connection between the cuboid/navicular and calcaneus/talus bones. Groups of six rats were orally dosed at 10 ml/kg, in random order, with a given dose of the test compound given as a solution or suspension in 10% (w/v) aqueous acacia solution.
One hour after dosing, 0.1 ml of 1% (w/v) sterile carrageenan λ in normal saline was injected deeply into the plantar surface of the marked hind foot of each rat. The volume of the foot (up to the marked line) was measured immediately after injection using duplicate water displacement readings. Three hours after injection the foot volume was measured again and the percentage increase in foot volume relative to the initial reading was calculated.
The increase in foot volume (i.e. the degree of oedema) in drug treated animals when compared with that in the drug untreated control gave the degree of inhibition of paw oedema by the drug.
Compounds were considered to be active in this test if they produced a 20% or greater inhibition of paw oedema in at least two out of three tests after oral dosing at 100 mg/kg. Statistical significance was assessed using the Student't test for single dose studies and Dunnett's test for multiple dose studies. More advantageous compounds were active in both Tests A and B,

[2] = test system: Zymosan Stimulated Macrophaqes; experiment: Test A: Inhibition of Arachidonic Acid Release from Zymosan Stimulated Macrophages; assay type: cell-based, mouse (female MF1); conditions: inhibition of arachidonic acid release, six concentrations (100, 50, 20, 10, 5 and 1 μM), 5 h with zymosan, read-out: Test A IC50
Procedure: Inhibition of Arachidonic Acid Release from Zymosan Stimulated Macrophaqes
Female MF1 mice (weighing 20 to 25 g) were killed using a rising concentration of CO2. The mice were laid on their backs and the abdomens wiped with 70% alcohol. The skin was pulled back, exposing the peritoneal wall. Medium A (5 ml) (see below) was injected into the peritoneal cavity of each mouse followed by approximately 1 ml of air using a 20 ml syringe and a 21 G×40 mm needle in order to form a suspension of macrophage cells. The medium and cells were then removed using a 19 G×40 mm needle. The resulting suspension was returned to a sterile beaker kept on ice. The extracts from all the mice were pooled and this pooled cell suspension was counted using a Coulter counter and adjusted to a final cell count of 1-1.3×10^6 cells/ml prior to labelling with [^3 H]-arachidonic acid. Typically five mice provided sufficient cells for each multiwell plate.
Sufficient [^3 H]-arachidonic acid in ethanol to give a final concentration of 1.6 μCi/ml (equivalent to 40 μCi/plate) was blown to dryness under nitrogen. The arachidonic acid was then resuspended in 1 or 2 ml of the cell suspension which was then mixed with the remainder of the cell suspension in a centrifuge bottle. The labelled cell suspension was then plated out into sterile plastic 96 flat-bottomed well plates (250 μl per well) and incubated overnight at 37° C. in a moist atmosphere of 5% CO2, 95% air.
The following day, non-adherent cells were removed by washing 3 times with sterile phosphate buffered saline (PBS). The adherent peritoneal macrophages were then cultured for a further 24 hours in the presence or absence of drugs, in medium B (see below) at 37° in a 5% CO2 atmosphere in order to measure the effects of drugs on the spontaneous release of arachidonic acid in the absence of stimulus. After this incubation, supernatants were removed to give media 1 and stored in sealed multi-well plates at 4° C. prior to scintillation counting. Drugs which potentiated spontaneous release of arachidonic acid (125% of controls) were deemed to be toxic at the concentration at which this phenomenon occurred. The supernatants were replaced by fresh medium C containing fresh drug and a stimulus. Three drugs were tested at six concentrations (100, 50, 20, 10, 5 and 1 μM) in replicates of four on each plate. The other wells contained controls consisting of a positive control (e.g. dexamethasone), medium (B) only and medium C only.
Incubation was then continued for a further 5 hours, whereupon the supernatants were collected to give media 2 and the adherent cells washed with PBS. The cells were then lysed with 100 μl of 0.1% TRITON® X100 in a 0.1% solution of bovine serum albumin in 0.9% saline and mechanically disrupted to give cell lysates. These supernatants (media 2) and cell lysates (Cells) were also stored in sealed multi-well plates at 4° C. prior to scintillation counting. 200 μl aliquots of media, or 100 μl aliquots of cells were counted using 2 ml of OPTIPHASE "HIGH SAFE" (Trademark of LKB) as scintillant.
The percentage of arachidonic acid released was calculated using the mean values for each group of 4 wells in the following equation. [formula] cpm=courts per minute
The value for the arachidonic acid release in the absence of stimulus (spontaneous, cpm of media 2) from cells which had been exposed to neither stimulus nor drug was subtracted from all equivalent values (cpm media 2, stimulated with or without drug) to give the net stimulated release. The percentage inhibition of arachidonic acid release caused by a drug may then be calculated using the following equation. [formula]
Compounds of formula I were tested at six concentrations (100, 50, 20, 10, 5 and 1 μM) and IC50 values calculated. Compounds with IC50 values<100 μM are considered to be active. Advantageous compounds have an IC50 value <50 μM.
Medium A (for peritoneal lavage) […]

SMILES	IC50 ([2]; Mus musculus, Macrophage, 5 h)	IC50 [2]	IC50 ([2]; listed as 68 (1))	inhibition in vivo at 100 mg/kg [1]	Test B % inhibition at 100 mg/kg [1]
CCC(CC)(NCCCn1ccnc1)c1ccc(Cl)cc1 [Example 76, 1-(4-Chlorophenyl)-1-ethyl-3'-(imidazol-1-yl)dipropylamine dihydrochloride]	15 µM	–	–	31%	–
CC(NCCCn1ccnc1)c1ccc(Cl)cc1O (stereo not shown) [Example 29, 5-chloro-2-{1-[3-(imidazol-1-yl)propylamino]ethyl}phenol dihydrochloride]	34 µM	–	–	36%	–
CC(C)(NCCCn1cncc1CO)c1ccc(Cl)c(Cl)c1 [Example 84, 1-{3-[1-(3,4-Dichlorophenyl)-1-methylethylamino]propyl}imidazol-5-ylmethanol]	24 µM	–	–	19%	–
CCCCOc1ccc(C(C)NCCCn2ccnc2)cc1 (stereo not shown) [Example 22, N-[1-(4-Butoxyphenyl)ethyl]-3-(imidazol-1-yl)propylamine dioxalate]	21 µM	–	–	17%	–
CC(C)(NCCCCn1ccnc1)c1ccc(Cl)cc1 [Example 89, N-[1-(4-chlorophenyl)-1-methylethyl]-4-(imidazol-1-yl)butylamine]	40 µM	–	–	51%	–
Cc1ccc(C(C)(C)NCCCn2ccnc2C)cc1 [Example 73, 3-(2-Methylimidazol-1-yl)-N-[1-methyl-1-(p-tolyl)ethyl]propylamine dihydrochloride]	49 µM	–	–	8%	–
CC(NCCCn1ccnc1)c1ccccc1Cl (stereo not shown) [Example 8, N-[1-(2-Chlorophenyl)ethyl]-3-(imidazol-1-yl)propylamine]	92 µM	–	–	55%	–
CC(NCCCn1ccnc1)c1ccc(Cl)c(C(F)(F)F)c1 (stereo not shown) [Example 9, N-[1-(4-Chloro-3-trifluoromethylphenyl)ethyl]-3-(imidazol-1-yl)propylamine]	22 µM	–	–	78%	–
CC(C)(NCCCn1cnc(CO)c1)c1ccc(-c2ccccc2)cc1 [Example 85, 1-{3-[1-(4-biphenylyl)-1-methylethylamino]propyl}imidazol-4-yl-methanol]	45 µM	–	–	0%	–
CCOC(=O)c1c(C)ncn1CCCNC(C)(C)c1ccc(Cl)cc1 [Example 78, Ethyl 1-{3-[1-(4-chlorophenyl)-1-methylethylamino]propyl)-4-methylimidazole-5-carboxylate]	20 µM	–	–	7%	–
CCOC(=O)c1ccc(C(C)(C)NCCCn2ccnc2)cc1 [Example 77, Ethyl 4-{1-[3-(imidazol-1-yl)propylamino]-1-methylethyl}benzoate]	82 µM	–	–	23%	–
Cc1ccc(C(C)(C)NCCCn2ccnc2)cc1 [Example 75, 3-(Imidazol-1-yl)-N-[1-methyl-1-(p-tolyl)ethyl]propylamine dihydrochloride]	47 µM	–	–	42%	–
Cc1cn(CCCNCc2ccc(Cl)cc2)cn1 [Example 44, N-(4-Chlorobenzyl)-3-(4-methylimidazol-1-yl)propylamine dihydrochloride]	30 µM	–	–	8%	–
CCC(NCCCn1ccnc1)c1ccc(Cl)cc1 (stereo not shown) [Example 30, N-[1-(4-chlorophenyl)propyl]-3-(imidazol-1-yl)propylamine oxalate]	24 µM	–	–	39%	–
Cc1cn(CCCNCc2ccc(Cl)cc2)c(Cc2ccccc2)n1 [Example 47]	–	7 µM	–	–	35%
CC(NCCCn1ccnc1)c1cccc(Cl)c1 (stereo not shown) [Example 7, N-[1-(3-Chlorophenyl)ethyl]-3-(imidazol-1-yl)propylamine]	94 µM	–	–	48%	–
c1ccc(Oc2ccc(CNCCCn3ccnc3)cc2)cc1 [Example 39, 3-(Imidazol-1-yl)-N-(4-phenoxybenzyl)propylamine]	10 µM	–	–	35%	–
CC(C)(NCCCn1ccnc1)c1ccc(Cl)cc1 [Example 59, N-[1-(4-chlorophenyl)-1-methylethyl]-3-(imidazol-1-yl)propylamine]	–	35 µM	35 µM	65%	–
CC(C)c1nccn1CCCNCc1ccc(Cl)cc1 [Example 71, N-(4-Chlorobenzyl)-3-(2-isopropylimidazol-1-yl)propylamine-dihydrochloride]	25 µM	–	–	10%	–

More lines, main results first:

IC50 ([2]; Mus musculus, Macrophage, 5 h)	IC50 [2]	IC50 ([2]; listed as 68 (1))	SMILES	inhibition in vivo at 100 mg/kg [1]	Test B % inhibition at 100 mg/kg [1]
–	16 µM	–	CC(NCCCn1ccnc1)c1ccc(Cl)cc1 (single isomer, unassigned; (+)) [Example 93, (+)N-[1-(4-chlorophenyl)ethyl]-3-(imidazol-1-yl)-propylamine (+) ditartrate]	–	57%
10 µM	–	–	Cc1cn(CCCNC(C)c2ccc(Cl)cc2)c(C)n1 (stereo not shown) [Example 31, N-[1-(4-chlorophenyl)ethyl]-3-(2,4-dimethylimidazol-1-yl)propylamine dihydrochloride]	25%	–
56 µM	–	–	CC(NCCCCn1ccnc1)c1ccc(Cl)cc1 (stereo not shown) [Example 26, N-[1-(4-Chlorophenyl)ethyl]-4-(imidazol-1-yl)butylamine]	40%	–
16 µM	–	–	CC(NCCCn1ccnc1)c1ccc(Cl)cc1 (single isomer, unassigned; (+)) [Example 56, (+) N-[1-(4-Chlorophenyl)ethyl]-3-(imidazol-1-yl)propylamine dihydrochloride]	57%	–
10 µM	–	–	Cc1cn(CCCNC(C)c2ccc(Cl)cc2)c(-c2ccccc2)n1 (stereo not shown) [Example 33, N-[1-(4-chlorophenyl)ethyl]-3-(4-methyl-2-phenyl-imidazol-1-yl)propylamine]	2%	–
19 µM	–	–	CC(NCCCn1ccnc1-c1ccccc1)c1ccc(Cl)cc1 (stereo not shown) [Example 25, N-[1-(4-Chlorophenyl)ethyl]-3-(2-phenylimidazol-1-yl)propylamine dihydrochloride hydrate]	34%	–
32 µM	–	–	CC(NCCCCCn1ccnc1)c1ccc(Cl)cc1 (stereo not shown) [Example 55, N-[1-(4-Chlorophenyl)ethyl]-5-(imidazol-1-yl)pentylamine dioxalate]	45%	–
13 µM	–	–	Cc1nc(C)n(CCCNC(C)c2ccc(Cl)cc2)c1C (stereo not shown) [Example 66, N-[1-(4-Chlorophenyl)ethyl]-3-(2,4,5-trimethylimidazol-1-yl)propylamine]	13%	–
